The structures appear in SMILES notation. Like-named read-outs stand apart in the source and are kept apart here.

Format in all cases: in vivo
The test system of assay [1] is barnyardgrass (Echinochloa crus-galli). Briefly: Test A preemergence. The note with it: Echinochloa crus-galli, pre-emergence, 240 h; for pest or weed control at 125 g/ha: 125 g ai/ha; for pest or weed control at 500 g/ha: 500 g ai/ha; for pest or weed control at 31 g/ha: 31 g ai/ha. In a few lines:
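In a loam soil and sand blend, planted seeds got a preemergence directed soil spray, and young plants at the one- to two-leaf stage, 2–10 cm high, got a postemergence application; ~10 d greenhouse hold; injury rated visually, 0 = none, 100 = complete control.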

Assay [2] has the same test system. Kind of assay: Test B flooded paddy test. The following applies: Echinochloa crus-galli, 250 g ai/ha, Flood. In a few lines:
(§1)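 2-leaf plants; pots flooded 3 cm over soil; cpd added to paddy water; depth held; greenhouse 13–15 d; visual rating vs controls, 0 = no effect, 100 = complete control.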

In assay [3] the test system is ducksalad (Heteranthera limosa). Briefly: Test B flooded paddy test. The following applies: Heteranthera limosa, 250 g ai/ha, Flood. In a few lines:
as §1

In the next assay the test system is rice (Oryra sativa). Kind of assay: Test B flooded paddy test. The following applies: Oryza sativa, 250 g ai/ha, Flood. In a few lines:
as §1

In assay [4] the test system is sedge, umbrella (small-flower umbrella sedge, Cyperus difformis). Briefly: Test B flooded paddy test. The following applies: Cyperus difformis, 250 g ai/ha, Flood. In a few lines:
as §1

[5] abbreviates: preemergence, visual injury rating, 0 to 100 scale where 0 is no effect and 100 is complete control, approximately 10 d, read-out: Barnyardgrass plant response rating.
Setting [6] is: preemergence, 0 to 100 scale where 0 is no effect and 100 is complete control, read-out: Barnyardgrass plant response rating.
The mark [7] stands for this setting: 0 to 100 scale where 0 is no effect and 100 is complete control, read-out: Barnyardgrass plant response rating.
Where [8] appears, read: 0 to 100 scale where 0 is no effect and 100 is complete control, read-out: Ducksalad plant response rating.
Setting [9] is: 0 to 100 scale where 0 is no effect and 100 is complete control, read-out: Rice plant response rating.
[10] abbreviates: 0 to 100 scale where 0 is no effect and 100 is complete control, read-out: Sedge, Umbrella plant response rating.
Where [11] appears, read: preemergence, visual rating after approx. 10 d, 0 to 100 scale where 0 is no effect and 100 is complete control, read-out: Plant response rating, Barnyardgrass.
Where [12] appears, read: preemergence, 0 to 100 scale, 0 = no effect, 100 = complete control, read-out: Plant response rating, Barnyardgrass.
The mark [13] stands for this setting: scale of 0 to 100 where 0 is no effect and 100 is complete control, read-out: Barnyardgrass plant response rating.
[14] abbreviates: scale of 0 to 100 where 0 is no effect and 100 is complete control, read-out: Ducksalad plant response rating.
[15] abbreviates: scale of 0 to 100 where 0 is no effect and 100 is complete control, read-out: Rice plant response rating.
Setting [16] is: scale of 0 to 100 where 0 is no effect and 100 is complete control, read-out: Sedge, Umbrella plant response rating.
Setting [17] is: Preemergence, 0 to 100 scale (0 no effect, 100 complete control), read-out: Plant response rating, Barnyardgrass.
Setting [18] is: preemergence, 0 to 100 scale (0 no effect, 100 complete control), read-out: Plant response rating, Barnyardgrass.
Where [19] appears, read: 360 h, visually evaluated after 13 to 15 d, read-out: Plant response rating, Barnyardgrass (0 to 100 scale where 0 is no effect and 100 is complete control).
Where [20] appears, read: 360 h, visually evaluated after 13 to 15 d, read-out: Plant response rating, Ducksalad (0 to 100 scale where 0 is no effect and 100 is complete control).
Where [21] appears, read: 360 h, visually evaluated after 13 to 15 d, read-out: Plant response rating, Rice (0 to 100 scale where 0 is no effect and 100 is complete control).
[22] abbreviates: 360 h, visually evaluated after 13 to 15 d, read-out: Plant response rating, Sedge, Umbrella (0 to 100 scale where 0 is no effect and 100 is complete control).
Setting [23] is: Preemergence, visual injury vs untreated controls after approximately 10 d, read-out: Barnyardgrass plant response rating (0 to 100 scale where 0 is no effect and 100 is complete control).

For `CN1C[C@H](c2ccc(F)c(C#N)c2)[C@@H](C(=O)Nc2ccccc2F)C1=O` [Compound 1254], the pest or weed control at 125 g/ha in assay [1] (setting [5]) was found to be 100%. The pest or weed control at 500 g/ha in assay [1] (setting [6]) came out at 100%. Moreover, the pest or weed control at 250 g/ha in assay [2] (setting [7]) was 60%; in assay [3] (setting [8]), 100%; in the assay with rice (Oryra sativa) (setting [9]), 0%; in assay [4] (setting [10]), 0%.
For `COc1cc([C@H]2CN(C)C(=O)[C@@H]2C(=O)Nc2ccccc2F)ccc1C(F)(F)F` [Compound 768], the pest or weed control at 125 g/ha in assay [1] (setting [11]) was found to be 90%. Moreover, the pest or weed control at 500 g/ha in assay [1] (setting [12]) is 90%. The pest or weed control at 250 g/ha in assay [2] (setting [13]) worked out at 60%; in assay [3] (setting [14]), 85%; in the assay with rice (Oryra sativa) (setting [15]), 15%; in assay [4] (setting [16]) it was 0%.
On to `COc1cc(C(F)(F)F)ccc1[C@H]1CN(C)C(=O)[C@@H]1C(=O)Nc1cccc(F)c1C` [Compound 1205], for which, in assay [1] (setting [5]), the pest or weed control at 125 g/ha came out at 90%. In addition, the pest or weed control at 500 g/ha in assay [1] (setting [6]) turned out to be 90%. For the same compound, the pest or weed control at 250 g/ha in assay [2] (setting [7]) turned out to be 40%; in assay [3] (setting [8]), 100%; in the assay with rice (Oryra sativa) (setting [9]), 20%; in assay [4] (setting [10]), 0%.
Consider `CN1C[C@H](c2ccc3c(c2)CCC3)[C@@H](C(=O)Nc2ccccc2F)C1=O` [Compound 742], for which the pest or weed control at 125 g/ha in assay [1] (setting [11]) is 90%. Moreover, the pest or weed control at 500 g/ha in assay [1] (setting [12]) turned out to be 90%. For the same compound, the pest or weed control at 250 g/ha in assay [2] (setting [13]) is 60%; in assay [3] (setting [14]), 100%; in the assay with rice (Oryra sativa) (setting [15]), 0%; in assay [4] (setting [16]) it was 0%.
With `CN1CC[C@H](c2cccc(OC(F)(F)F)c2)[C@@H](C(=O)Nc2cccc(F)c2F)C1=O` [Compound 807], the pest or weed control at 125 g/ha in assay [1] (setting [11]) amounted to 100%. Further, the pest or weed control at 31 g/ha in assay [1] (setting [17]) was found to be 100%. The pest or weed control at 250 g/ha in assay [2] (setting [13]) is 95%; in assay [3] (setting [14]) it was 100%; with rice (Oryra sativa) (setting [15]), 0%; in assay [4] (setting [16]) it was 0%.
Take `Cc1cc([C@H]2CNC(=O)[C@@H]2C(=O)Nc2ccccc2C(F)(F)F)ccc1Cl` [Compound 1245]: the pest or weed control at 125 g/ha in assay [1] (setting [5]) stood at 50%. The pest or weed control at 500 g/ha in assay [1] (setting [6]) was 80%. Further, the pest or weed control at 250 g/ha in assay [2] (setting [7]) was 0%; in assay [3] (setting [8]) it was 90%; in the assay on rice (Oryra sativa) (setting [9]), 0%; in assay [4] (setting [10]), 0%.
In the case of `CN1C[C@H](c2cc(F)cc(F)c2)[C@@H](C(=O)Nc2ccccc2S(C)(=O)=O)C1=O` [Compound 739], the pest or weed control at 125 g/ha in assay [1] (setting [11]) came out at 90%. In assay [1] (setting [12]), the pest or weed control at 500 g/ha came out at 100%. Also, the pest or weed control at 250 g/ha in assay [2] (setting [13]) is 60%; in assay [3] (setting [14]), 100%; in the assay with rice (Oryra sativa) (setting [15]) it was 0%; in assay [4] (setting [16]), 0%.
For the compound `Cc1cc([C@H]2CN(C)C(=O)[C@@H]2C(=O)Nc2cccc(F)c2C)ccc1F` [Compound 1311], the pest or weed control at 500 g/ha in assay [1] (setting [6]) worked out at 100%. For the same compound, the pest or weed control at 125 g/ha in assay [1] (setting [17]) is 100%. Besides, the pest or weed control at 250 g/ha in assay [2] (setting [7]) was 80%; in assay [3] (setting [8]), 100%; in the assay on rice (Oryra sativa) (setting [9]) it was 0%; in assay [4] (setting [10]) it was 0%.
As for `Cc1ccc([C@H]2CN(C)C(=O)[C@@H]2C(=O)Nc2ccccc2F)cc1Cl` [Compound 1384], the pest or weed control at 500 g/ha in assay [1] (setting [18]) came out at 90%. Also, the pest or weed control at 125 g/ha in assay [1] (setting [17]) came to 90%. Further, the pest or weed control at 250 g/ha in assay [2] (setting [19]) was 65%; in assay [3] (setting [20]), 100%; in the assay on rice (Oryra sativa) (setting [21]), 40%; in assay [4] (setting [22]) it was 0%.
For `COc1cc([C@H]2CN(C)C(=O)[C@@H]2C(=O)Nc2cccc(F)c2F)ccc1C(F)(F)F` [Compound 770], the pest or weed control at 125 g/ha in assay [1] (setting [11]) is 90%. Further, the pest or weed control at 31 g/ha in assay [1] (setting [17]) came to 70%. Besides, the pest or weed control at 250 g/ha (in assay [2] (setting [13]); in assay [3] (setting [14]); with rice (Oryra sativa) (setting [15]); in assay [4] (setting [16])) was 0% throughout.
Regarding `CN1C[C@H](c2ccc(OC(F)F)cc2)[C@@H](C(=O)Nc2ccccc2F)C1=O` [Compound 1371], the pest or weed control at 500 g/ha in assay [1] (setting [18]) amounted to 100%. Also, the pest or weed control at 125 g/ha in assay [1] (setting [17]) amounted to 90%. Besides, the pest or weed control at 250 g/ha in assay [2] (setting [19]) was 60%; in assay [3] (setting [20]), 100%; with rice (Oryra sativa) (setting [21]) it was 0%; in assay [4] (setting [22]), 0%.
For `Cc1cc([C@H]2CNC(=O)[C@@H]2C(=O)Nc2ccc(F)cc2F)ccc1Br` [Compound 725], the pest or weed control at 125 g/ha in assay [1] (setting [11]) came out at 90%. Moreover, the pest or weed control at 500 g/ha in assay [1] (setting [12]) is 90%. Also, the pest or weed control at 250 g/ha turned out to be 0% in assay [2] (setting [13]), 100% in assay [3] (setting [14]), 0% with rice (Oryra sativa) (setting [15]) and 0% in assay [4] (setting [16]).
On to `COc1cc([C@H]2CN(C)C(=O)[C@@H]2C(=O)Nc2ccccc2SC)ccc1F` [Compound 1301], for which the pest or weed control at 125 g/ha in assay [1] (setting [5]) worked out at 30%. For the same compound, in assay [1] (setting [6]), the pest or weed control at 500 g/ha is 90%. Moreover, the pest or weed control at 250 g/ha in assay [2] (setting [7]) stood at 0%; in assay [3] (setting [8]) it was 20%; in the assay on rice (Oryra sativa) (setting [9]), 0%; in assay [4] (setting [10]), 0%.
For the compound `CS(=O)(=O)c1ccccc1NC(=O)[C@H]1C(=O)NC[C@@H]1c1ccc(OC(F)F)cc1` [Compound 787], the pest or weed control at 125 g/ha in assay [1] (setting [11]) came out at 20%. Further, the pest or weed control at 500 g/ha in assay [1] (setting [23]) is 70%. In addition, the pest or weed control at 250 g/ha in assay [2] (setting [13]) came to 0%; in assay [3] (setting [14]), 50%; in the assay on rice (Oryra sativa) (setting [15]), 0%; in assay [4] (setting [16]), 0%.
In the case of `CN1C[C@H](c2ccc3c(c2)CCC3)[C@@H](C(=O)Nc2ccccc2S(C)(=O)=O)C1=O` [Compound 744], the pest or weed control at 125 g/ha in assay [1] (setting [11]) was 20%. In assay [1] (setting [12]), the pest or weed control at 500 g/ha came to 90%. The pest or weed control at 250 g/ha in assay [2] (setting [13]) was 60%; in assay [3] (setting [14]) it was 85%; in the assay on rice (Oryra sativa) (setting [15]) it was 0%; in assay [4] (setting [16]) it was 0%.
`CN1C[C@H](c2cccc([N+](=O)[O-])c2)[C@@H](C(=O)Nc2cccc(F)c2F)C1=O` (racemic) [Compound 776]: in assay [1] (setting [11]), the pest or weed control at 125 g/ha was found to be 90%. In assay [1] (setting [23]), the pest or weed control at 500 g/ha was 90%. The pest or weed control at 250 g/ha in assay [2] (setting [13]) came to 80%; in assay [3] (setting [14]), 80%; in the assay with rice (Oryra sativa) (setting [15]), 0%; in assay [4] (setting [16]), 0%.
As to `CN1C[C@H](c2cccc(C(F)(F)F)c2)[C@@H](C(=O)Nc2ccc(F)c(F)c2F)C1=O` [Compound 1389], the pest or weed control at 500 g/ha in assay [1] (setting [18]) is 100%. Further, in assay [1] (setting [17]), the pest or weed control at 125 g/ha came out at 100%. Moreover, the pest or weed control at 250 g/ha was found to be 60% in assay [2] (setting [19]), 100% in assay [3] (setting [20]), 15% with rice (Oryra sativa) (setting [21]) and 0% in assay [4] (setting [22]).

The record behind these values is patent US12077503B2, “Substituted cyclic amides and their use as herbicides” (FMC CORPORATION, priority 2015, dated 2024).
